Experimental data published in article doi:10.1101/2024.12.09.627393 (bioRxiv, 2024).

Test system: CECR2-BRD
Experiment: 2D 15N-HSQC NMR chemical shift perturbation titration
Type: binding, human
Conditions: 15N-labeled CECR2-BRD, 25°C; 3% DMSO, or NVS-CECR2–1 including 3% DMSO
Procedure: CECR2-BRD was expressed and purified for NMR experiments following previously established methods, [18]. Briefly, uniformly labeled ^15N CECR2-BRD samples in buffer containing 20 mM Tris-HCl pH 6.8, 150 mM NaCl, 1 mM TCEP, and 10% D2O were purified at 0.30 mM for chemical-shift perturbation experiments.
All two-dimensional (2D) ^15N-HSQC (heteronuclear single quantum […]) experiments were acquired at 25°C using a 600 MHz Bruker AVANCE III spectrometer equipped with a z-gradient 1.7 mm TCI probe at the National Magnetic Resonance Facility at Madison (NMRFAM). The experimental setup for all 2D experiments was kept similar to our previous studies, [18]. […] Chemical Shift Perturbations (CSP) from the final titration point were calculated and normalized as described by Williamson[21], using the equation: Δδ=√ΔδH^2+α⋅ΔδN^2 Where α=0.2 for glycine, and 0.14 for all other residues. ΔδH and ΔδN represent chemical shifts in ppm for hydrogen and nitrogen atoms, respectively. […] These were calculated using the standard deviation (Δ ppm/ Standard deviation ppm, where standard deviation was calculated for each histone ligand) of the Euclidean chemical change of the residues as described previously, [18].

SMILES	Chemical shift perturbations of CECR2-BRD residues (in words)
CCCS(=O)(=O)c1nc(NC2CC2)cc(-c2ccc3c(ccn3C3CC(C)(C)NC(C)(C)C3)c2)n1 [NVS-CECR2–1]	CSPs in some residues within αA, αB and αC helices
C[S+](C)[O-] [DMSO]	significant (> 1 Δppm) shifts in residues within the ZA loop and BC loop region
